These results are taken from paper PMC5048394, “Development and substrate specificity screening of an in vivo biosensor for the detection of biomass derived aromatic chemical building blocks” (Chemical Communications (Cambridge, England), 2016).

The assay has as its system PLC biosensor. The assay is described as follows: microbe, parasite or virus in culture. It counts as cell-based, E. coli BL21. Particulars: for EC10: BL21; for Emax: BL21, read-out: Induction; for maximal fold induction: BL21, read-out: Signal range (max/min), substrate screening, PLC biosensor, E. coli BL21; for EC50 / EC90 / Change in potency relative to sinapic acid (4) / Induction / Sensing range (predicted) / Activity against the FerC biosensor: PLC biosensor; for EC50 / EC90 / Change in potency relative to sinapic acid (4) / Activity against the FerC biosensor: E. coli BL21; for Induction: E. coli BL21, 0.32–1000 μM; for Output signal / efficacy: relative to the PLC biosensor response curve with ferulic acid; for Sensing range (predicted): E. coli BL21, text. As to the method:
Cells were centrifuged, washed and re-suspended with PBS buffer. The expression output was then analyzed by monitoring the fluorescence normalised to cell density (RFU/OD600) in a multimode plate reader (Methods, ESI ^†).
The sequences containing the PLC, PPC and PferB promoters, a RBS, and a Hexa-Histidine tag, flanked by SphI/NdeI were synthetized (GeneART, ThermoFisher). The sequences were enzyme restricted with SphI/NdeI and cloned in pET44eGFP,2 upstream to the eGFP gene, replacing the T7 promoter region generating respectively, the pET44PLCeGFP, pET44PPCeGFP and pET44PferBeGFP vectors.
The FerCA DNA sequence containing the ferA and ferC genes, individually flanked by a PLacI promoter and an rrn_B1 terminator, was synthetized by GeneARTTM (ThermoFisher).
The construct was cloned in a p15 plasmid flanked by NaeI/KasI restriction sites generating […]
the p15FerCA vector. […]
Biosensors Performance and Screening Methods
Reporter controls and the biosensor systems PLC, PPC and PferB were respectively generated by transformation of pET44PLCeGFP, pET44PPCeGFP and pET44PFerBeGFP vectors alone or with p15FerCA in BL21 and DH10B chemically competent E. coli cells. A single colony of each system was grown in LB media supplemented with antibiotics at 37 °C with shaking at 180rpm for 16 hours. Cultures were diluted (1:100) in fresh LB media with appropriate antibiotics, re-incubated at 37 °C with shaking until OD ~0.6 and transferred (450 μL) to multi- […]
μM and 1000 μM. Induction plates were incubated at 37 °C, with shaking at 1000 RPM (Stuart microtitre plate shaker incubator) for 3 hours. Cells were harvested by centrifugation, washed twice and re-suspended with PBS buffer. Expression output was analyzed by monitoring the fluorescence normalised to cell density (RFU/OD) in a multimode plate reader. […]
Compounds for screening were selected using cinnamic acid as a reference structure. The 58 selected compounds were tested with the PLC biosensor in E. coli BL21 cells. The substrate screening assays were performed using concentrations ranging from 0.32 μM to 1000 μM, as described for Ferulic acid. […]
Data Processing and Curve Fitting
Biosensor signal output (eGFP expression) was measured as Relative Fluorescence Units (RFU) and normalised to cell density (OD600). The background auto-fluorescence of E. coli was subtracted from RFU/OD and was normalised (%) to the pLC biosensor response curve to ferulic acid for each experiment. The normalised data was plotted and fitted with a dose-response curve using the Levenberg Marquardt logistic growth/sigmoidal algorithm, using the Origin 2015 (OriginLab, Northampton MA USA) program. The biomass screening data was […]

[1] abbreviates: Escherichia coli, BL21, substrate screening.

Molecules are shown by their SMILES. Some results are limits rather than exact numbers.

Turning to `COc1cc(C=CC(=O)O)cc(OC)c1OC` [compound 11, 3,4,5-Trimethoxycinnamic acid], where the note is “Escherichia coli”, it took 378 µM to reach the 10% level (EC10), the Emax is below 40% and the maximal fold induction turned out to be 6.7. Under setting [1], this molecule returned an EC50 above 2000 µM and a concentration for an effect of 90% (EC90) of 14800 µM. For the setting “substrate screening”, the “Change in potency relative to sinapic acid (4)” value is listed as 8 fold, the 50% effective concentration (EC50) was 2360 ± 265 µM, the Induction result was “L (low signals (<40%))” and the “Output signal / efficacy” value is listed as below 40%.

Consider `COc1cc(/C=C/C(=O)O)cc(OC)c1O` [compound 4, Sinapic acid], for which, under “Escherichia coli”, the EC10 is 19.8 µM, the Emax was above 70% and the maximal fold induction was 15.4. Under setting [1], this molecule showed an EC50 above 200 µM and an EC90 of 4990 µM. In addition, where the note is “substrate screening”, the concentration for a half-maximal effect (EC50) stood at 314 ± 55.8 µM; the Induction entry is “H (high output signals, and hence good efficacy (>70%))”; the “Sensing range (predicted)” value is 225 fold.

In the case of `COc1ccc(C=CC(=O)O)cc1O` [compound 5, 3-Hydroxy-4-methoxycinnamic acid], for the setting “Escherichia coli”, the EC10 is 36.3 µM, the Emax is above 70% and the maximal fold induction was found to be 33.5. Under setting [1], this molecule registered an EC50 above 200 µM and an EC90 of 1510 µM. Under “substrate screening”, the midpoint of the response, the EC50, lay at 234 ± 15.4 µM; the Induction result is “H (high output signals, and hence good efficacy (>70%))”.

Regarding `O=C(O)/C=C/c1ccccc1` [compound 14, cinnamic acid], where the note is “substrate screening”, the “Activity against the FerC biosensor” value is listed as “no activity”.

On to `O=C(O)C=Cc1ccc(O)cc1` [compound 2, p-Coumaric acid], for which, where the note is “Escherichia coli”, the EC10 was 3.9 µM, the Emax is above 70% and the maximal fold induction came to 25. Besides, under setting [1], the EC50 is 26.1 ± 3.8 µM and the EC90 worked out at 174 µM. Where the note is “substrate screening”, the Induction entry is “H (high output signals, and hence good efficacy (>70%))”.

For the molecule `COc1cccc(C=CC(=O)O)c1` [compound 13, 3-Methoxycinnamic acid], where the note is “Escherichia coli”, the EC10 is 816 µM, the Emax is below 40% and the maximal fold induction was found to be 4.8. Where the note is “substrate screening”, the Induction entry is on record as “L (low signals (<40%))” and the “Output signal / efficacy” value is below 40%.

Consider `COc1cc(C=CC(=O)O)cc(O)c1O` [compound 6, 3,4-Dihydroxy-5-methoxycinnamic acid], for which, for the setting “Escherichia coli”, the concentration for an effect of 10% (EC10) came to 33.9 µM, the Emax is 40 to 60% and the maximal fold induction is 14.8. Under setting [1], this molecule registered an EC50 of 746 ± 118 µM and an EC90 of 16400 µM. Also, under “substrate screening”, the “Change in potency relative to sinapic acid (4)” value came out at 2.5 fold, the Induction result is recorded as “M (moderate signal (60–40%))” and the “Sensing range (predicted)” value is recorded as 485 fold.

In the case of `COc1ccc(C=CC(=O)O)cc1OC` [compound 8, 3,4-Dimethoxycinnamic acid], for the setting “Escherichia coli”, the EC10 turned out to be 228 µM, the Emax was in the range of 40 to 60% and the maximal fold induction was 11.4. Under setting [1], this molecule registered an EC50 of 825 ± 13.2 µM and an EC90 of 2990 µM. Besides, the Induction result (substrate screening) is “M (moderate signal (60–40%))”.

Turning to `O=C(O)C=Cc1ccc([N+](=O)[O-])cc1` [compound 10, 4-Nitrocinnamic acid], where the note is “Escherichia coli”, it took 158 µM to reach the 10% level (EC10), the Emax lay within 40 to 60% and the maximal fold induction turned out to be 9.5. In addition, under setting [1], the EC50 is 1560 ± 96.8 µM and it took 15500 µM to reach the 90% level (EC90). Further, the Induction result (substrate screening) is listed as “M (moderate signal (60–40%))”.

Take `O=C(O)C=Cc1ccc(O)cc1O` [compound 7, 2,4-Dihydroxycinnamic acid]: for the setting “Escherichia coli”, the 10% effect level (EC10) was put at 131 µM, the Emax is 40 to 60% and the maximal fold induction was determined as 9.6. Under setting [1], the EC50 worked out at 823 ± 45.6 µM and it took 5170 µM to reach the 90% level (EC90). Moreover, the Induction result (substrate screening) is recorded as “M (moderate signal (60–40%))”.

For the molecule `COc1cc(CCC(=O)O)ccc1O` [compound 12, 3-(4-Hydroxy-3-methoxyphenyl)propionic acid], under “Escherichia coli”, the EC10 came to 702 µM, the Emax was below 40% and the maximal fold induction stood at 3.3. Further, the 90% effect level under setting [1] (EC90) was put at 31300 µM. Also, under “substrate screening”, the “Activity against the FerC biosensor” value was “low activity”, the Induction entry is “L (low signals (<40%))” and the “Output signal / efficacy” value is below 40%.

In the case of `O=C(O)/C=C/c1ccc(O)c(O)c1` [compound 9, Caffeic acid], where the note is “Escherichia coli”, the 10% effect concentration (EC10) amounted to 222 µM, the Emax was 40 to 60% and the maximal fold induction came out at 11.2. Under setting [1], this molecule returned an EC50 of 1180 ± 88.5 µM and an EC90 of 6250 µM. For the setting “substrate screening”, the Induction result is reported as “M (moderate signal (60–40%))”.

`Nc1ccc(C=CC(=O)O)cc1` [compound 3, 3-(4-Aminophenyl)-2-propenoic acid]: under “Escherichia coli”, the EC10 was found to be 12 µM, the Emax is above 70% and the maximal fold induction was 28.1. Under setting [1], this molecule displayed an EC50 of 110 ± 25.7 µM and an EC90 of 1010 µM. Also, the Induction entry (substrate screening) was “H (high output signals, and hence good efficacy (>70%))”.

On to `Cc1ccc(C=CC(=O)O)cc1` [compound 29, 4-methylcinnamic acid], for which the “Activity against the FerC biosensor” value (substrate screening) is reported as “devoid of activity”.
